Laboratory results from patent US20240391862A1, “(1,4,5-TRISUBSTITUTED-1H-PYRAZOL-3-YL)OXY-2-ALKOXY ALKYL ACIDS AND THEIR DERIVATIVES, THEIR SALTS AND THEIR USE AS HERBICIDAL AGENTS” (Bayer AKtiengesellschaft, priority 2021, published 2024).

Tests used:
[1] = tested on: TRZAS; assay: Post-emergence herbicidal effect and crop plant compatibility, greenhouse pot test; assay type: in vivo, Triticum aestivum; conditions: Triticum aestivum, 504 h, 20 g/ha, one-leaf stage, rated visually after about 3 weeks vs untreated controls, read-out: Post-emergence effect at 20 g/ha against TRZAS in %
Summary of the method: (§1)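 Greenhouse pot test: weeds and crops sown in sandy loam, sprayed post-emergence at one-leaf stage (2–3 weeks after sowing) with WP or EC formulations plus 0.5% additive at 600 l/ha water, rates 20–320 g/ha. Visual rating about 3 weeks later versus untreated controls (100% = dead, 0% = as control).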

[2] = tested on: PHBPU; assay: Post-emergence herbicidal effect, greenhouse pot test; assay type: in vivo, Ipomoea purpurea
Summary of the method: (§2)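 Greenhouse pot plants in sandy loam receive a one-leaf-stage spray at 20 to 320 g/ha. Activity is assessed visually around 3 weeks afterwards on a 0–100% scale, where 100% means the plants have died.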

[3] = tested on: SETVI; assay: as above; assay type: in vivo, Setaria viridis
Summary of the method: as §2

[4] = tested on: VIOTR; assay: as above; assay type: in vivo, Viola tricolor
Summary of the method: as §2

[5] = tested on: AVEFA; assay: as above; assay type: in vivo, Avena fatua; conditions: visual rating about 3 weeks after treatment
Summary of the method: as §2

[6] = tested on: ALOMY; assay: as above; assay type: in vivo, Alopecurus myosuroides; conditions: 320 g/ha, visual rating about 3 weeks after treatment
Summary of the method: as §2

[7] = tested on: POLCO; assay: as above; assay type: in vivo, Fallopia convolvulus
Summary of the method: as §2

[8] = tested on: KCHSC; assay: as above; assay type: in vivo
Summary of the method: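 Greenhouse plants in sandy loam, sprayed post-emergence at the one-leaf stage (2–3 weeks after sowing) with WP or EC formulations in water plus 0.5% additive at 600 l/ha. Rates 20 to 320 g/ha. Activity rated visually after about 3 weeks against untreated controls (0% like control, 100% dead).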

[9] = tested on: VERPE; assay: as above; assay type: in vivo, Veronica persica; conditions: 320 g/ha
Summary of the method: as §2

[10] = tested on: LOLRI; assay: as above; assay type: in vivo, Lolium rigidum
Summary of the method: as §2

[11] = tested on: ABUTH; assay: as above; assay type: in vivo, Abutilon theophrasti; conditions: visual rating about 3 weeks after treatment
Summary of the method: as §2

[12] = tested on: ZEAMX; assay: Post-emergence herbicidal effect and crop plant compatibility, greenhouse pot test; assay type: in vivo, Zea mays; conditions: one-leaf stage, rated visually after about 3 weeks vs untreated controls; for plant injury at 80 g/ha: read-out: Post-emergence effect at 80 g/ha against ZEAMX in %
Summary of the method: as §1

[13] = tested on: DIGSA; assay: Post-emergence herbicidal effect, greenhouse pot test; assay type: in vivo, Digitaria sanguinalis; conditions: visual rating about 3 weeks after treatment
Summary of the method: as §2

[14] = tested on: ECHCG; assay: as above; assay type: in vivo, Echinochloa crus-galli
Summary of the method: as §2

[15] = tested on: AMARE; assay: as above; assay type: in vivo, Amaranthus retroflexus; conditions: 320 g/ha, visual rating about 3 weeks after treatment
Summary of the method: as §2

[16] = 504 h, 320 g/ha, read-out: Post-emergence effect against KCHSC in %

## CCOC(=O)C(OC)Oc1nn(-c2ncccc2F)c(-c2ccc(F)nc2)c1C(F)(F)F (stereo not shown) [Example I-55]
[1]
  percent crop injury (phytotoxicity) to wheat, post-emergence at 20 g/ha: 20%
[2]; Ipomoea purpurea, 504 h, 20 g/ha, read-out: Post-emergence effect against PHBPU in %
  pest or weed control at 20 g/ha: 80%
[2]; Ipomoea purpurea, 504 h, 80 g/ha, read-out: Post-emergence effect against PHBPU in %
  pest or weed control at 80 g/ha: 80%
[2]; Ipomoea purpurea, 504 h, 320 g/ha, read-out: Post-emergence effect against PHBPU in %
  pest or weed control at 320 g/ha: 90%
[3]; Setaria viridis, 504 h, 320 g/ha, read-out: Post-emergence effect against SETVI in %
  pest or weed control at 320 g/ha: 80%
[4]; Viola tricolor, 504 h, 80 g/ha, read-out: Post-emergence effect against VIOTR in %
  pest or weed control at 80 g/ha: 80%
[4]; Viola tricolor, 504 h, 320 g/ha, read-out: Post-emergence effect against VIOTR in %
  pest or weed control at 320 g/ha: 90%
[5]; Avena fatua, 504 h, 80 g/ha, read-out: Post-emergence effect against AVEFA
  pest or weed control at 80 g/ha: 90%
[5]; Avena fatua, 504 h, 320 g/ha, read-out: Post-emergence effect against AVEFA
  pest or weed control at 320 g/ha: 90%
[6]; Alopecurus myosuroides, 504 h, read-out: Post-emergence effect against ALOMY
  pest or weed control at 320 g/ha: 90%
[7]; Fallopia convolvulus, 504 h, 80 g/ha, read-out: Post-emergence effect against POLCO in %
  pest or weed control at 80 g/ha: 80%
[7]; Fallopia convolvulus, 504 h, 320 g/ha, read-out: Post-emergence effect against POLCO in %
  pest or weed control at 320 g/ha: 90%
[8]; 504 h, 80 g/ha, read-out: Post-emergence effect against KCHSC in %
  pest or weed control at 80 g/ha: 90%
[8]; [16]
  pest or weed control at 320 g/ha: 90%
[9]; Veronica persica, 504 h, read-out: Post-emergence effect against VERPE in %
  pest or weed control at 320 g/ha: 90%
[10]; Lolium rigidum, 504 h, 320 g/ha, read-out: Post-emergence effect against LOLRI in %
  pest or weed control at 320 g/ha: 90%
[11]; Abutilon theophrasti, 504 h, 80 g/ha, read-out: Post-emergence effect against ABUTH
  pest or weed control at 80 g/ha: 80%
[11]; Abutilon theophrasti, 504 h, 320 g/ha, read-out: Post-emergence effect against ABUTH
  pest or weed control at 320 g/ha: 90%
[12]; Zea mays, 504 h, 20 g/ha, read-out: Post-emergence effect at 20 g/ha against ZEAMX in %
  plant injury at 20 g/ha: 0%
[12]; Zea mays, 504 h, 80 g/ha
  plant injury at 80 g/ha: 0%
[13]; Digitaria sanguinalis, 504 h, 80 g/ha, read-out: Post-emergence effect against DIGSA
  pest or weed control at 80 g/ha: 90%
[13]; Digitaria sanguinalis, 504 h, 320 g/ha, read-out: Post-emergence effect against DIGSA
  pest or weed control at 320 g/ha: 90%
[14]; Echinochloa crus-galli, 504 h, 80 g/ha, read-out: Post-emergence effect against ECHCG in %
  pest or weed control at 80 g/ha: 90%
[14]; Echinochloa crus-galli, 504 h, 320 g/ha, read-out: Post-emergence effect against ECHCG in %
  pest or weed control at 320 g/ha: 90%

## COC(Oc1nn(-c2ncccc2F)c(-c2cncc(F)c2)c1C1CC1)C(=O)O (stereo not shown) [Example I-85]
[1]
  percent crop injury (phytotoxicity) to wheat, post-emergence at 20 g/ha: 0%
[2]; 20 g/ha
  Post-emergence effect against PHBPU in %: 80%
[2]; 80 g/ha
  Post-emergence effect against PHBPU in %: 90%
[2]; 320 g/ha
  Post-emergence effect against PHBPU in %: 90%
[3]; 80 g/ha
  Post-emergence effect against SETVI in %: 90%
[3]; 320 g/ha
  Post-emergence effect against SETVI in %: 90%
[4]; 80 g/ha
  Post-emergence effect against VIOTR in %: 80%
[4]; 320 g/ha
  Post-emergence effect against VIOTR in %: 90%
[5]; 80 g/ha
  Post-emergence effect against AVEFA: 90%
[5]; 320 g/ha
  Post-emergence effect against AVEFA: 90%
[6]
  Post-emergence effect against ALOMY: 90%
[7]; 80 g/ha
  Post-emergence effect against POLCO in %: 90%
[7]; 320 g/ha
  Post-emergence effect against POLCO in %: 90%
[7]; Fallopia convolvulus, 504 h, 20 g/ha, read-out: Post-emergence effect against POLCO in %
  pest or weed control at 20 g/ha: 80%
[8]; 80 g/ha
  Post-emergence effect against KCHSC in %: 90%
[8]; 320 g/ha
  Post-emergence effect against KCHSC in %: 90%
[15]
  Post-emergence effect against AMARE: 80%
[9]
  Post-emergence effect against VERPE in %: 90%
[10]; 80 g/ha
  Post-emergence effect against LOLRI in %: 80%
[10]; 320 g/ha
  Post-emergence effect against LOLRI in %: 90%
[11]; 80 g/ha
  Post-emergence effect against ABUTH: 80%
[11]; 320 g/ha
  Post-emergence effect against ABUTH: 90%
[12]; 20 g/ha
  Post-emergence effect at 20 g/ha against ZEAMX in %: 0%
[12]; Zea mays, 504 h, 80 g/ha
  plant injury at 80 g/ha: 20%
[13]; 320 g/ha
  Post-emergence effect against DIGSA: 90%
[14]; 20 g/ha, visual rating about 3 weeks after treatment
  Post-emergence effect against ECHCG: 90%
[14]; 80 g/ha
  Post-emergence effect against ECHCG in %: 90%
[14]; 320 g/ha
  Post-emergence effect against ECHCG in %: 90%

## COC(=O)C(OC)Oc1nn(-c2ncccc2F)c(-c2ccc(F)nc2)c1C1CC1 (stereo not shown) [Example I-107]
[1]
  percent crop injury (phytotoxicity) to wheat, post-emergence at 20 g/ha: 20%
[2]; 80 g/ha
  Post-emergence effect against PHBPU in %: 80%
[2]; 320 g/ha
  Post-emergence effect against PHBPU in %: 80%
[3]; 320 g/ha
  Post-emergence effect against SETVI in %: 90%
[4]; 320 g/ha
  Post-emergence effect against VIOTR in %: 90%
[5]; 320 g/ha
  Post-emergence effect against AVEFA: 90%
[6]
  Post-emergence effect against ALOMY: 100%
[7]; 80 g/ha
  Post-emergence effect against POLCO in %: 90%
[7]; 320 g/ha
  Post-emergence effect against POLCO in %: 90%
[8]; [16]
  pest or weed control at 320 g/ha: 90%
[15]
  Post-emergence effect against AMARE: 80%
[9]
  Post-emergence effect against VERPE in %: 80%
[10]; 320 g/ha
  Post-emergence effect against LOLRI in %: 90%
[11]; 320 g/ha
  Post-emergence effect against ABUTH: 80%
[12]; 20 g/ha
  Post-emergence effect at 20 g/ha against ZEAMX in %: 0%
[12]; 80 g/ha
  Post-emergence effect at 80 g/ha against ZEAMX in %: 0%
[13]; 320 g/ha
  Post-emergence effect against DIGSA: 80%
[14]; 320 g/ha
  Post-emergence effect against ECHCG in %: 90%
